Holding throughout (type): cell-based
For one experiment, the target named is T1, human TLR9 (Homo sapiens, UniProt Q9NR96).
T1 construct: host or cells: HEK-Blue cells (HEK293-derived reporter line)
T1 sequence (Q9NR96 26-1032): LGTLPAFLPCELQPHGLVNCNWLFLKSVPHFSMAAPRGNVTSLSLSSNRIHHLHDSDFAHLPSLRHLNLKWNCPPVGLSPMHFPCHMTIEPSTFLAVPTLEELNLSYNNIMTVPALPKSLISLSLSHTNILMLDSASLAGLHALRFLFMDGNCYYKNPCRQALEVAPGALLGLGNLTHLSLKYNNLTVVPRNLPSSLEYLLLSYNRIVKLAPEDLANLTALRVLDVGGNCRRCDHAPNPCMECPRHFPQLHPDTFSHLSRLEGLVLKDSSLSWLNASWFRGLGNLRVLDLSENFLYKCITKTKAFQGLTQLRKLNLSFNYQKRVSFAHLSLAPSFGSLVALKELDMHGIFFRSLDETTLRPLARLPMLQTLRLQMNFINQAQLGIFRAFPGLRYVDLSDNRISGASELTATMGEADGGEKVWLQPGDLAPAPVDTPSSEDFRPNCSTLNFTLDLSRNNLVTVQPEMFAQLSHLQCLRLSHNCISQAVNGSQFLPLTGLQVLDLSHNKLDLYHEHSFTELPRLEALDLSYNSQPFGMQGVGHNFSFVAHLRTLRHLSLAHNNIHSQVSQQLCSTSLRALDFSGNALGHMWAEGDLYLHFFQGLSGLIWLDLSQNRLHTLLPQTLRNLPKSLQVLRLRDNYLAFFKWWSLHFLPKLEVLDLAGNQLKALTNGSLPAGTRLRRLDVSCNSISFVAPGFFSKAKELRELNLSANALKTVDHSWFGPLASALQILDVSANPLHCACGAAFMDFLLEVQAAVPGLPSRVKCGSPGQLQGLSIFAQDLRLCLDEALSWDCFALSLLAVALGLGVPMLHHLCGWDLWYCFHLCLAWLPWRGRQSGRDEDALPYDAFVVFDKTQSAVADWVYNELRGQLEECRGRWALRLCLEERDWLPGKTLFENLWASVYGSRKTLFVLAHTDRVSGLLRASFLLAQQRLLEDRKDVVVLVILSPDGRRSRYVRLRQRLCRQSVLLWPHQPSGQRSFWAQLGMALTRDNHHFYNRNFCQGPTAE
The experiment is described as follows: TLR9 inhibition reporter assay (HEK-Blue cells, SEAP reporter, ODN2006 stimulation). The following applies: HEK-Blue cells overexpressing human TLR9, SEAP reporter, ODN2006 5 nM. A digest of the protocol:
(§1)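 After 22 h at 37 °C, SEAP secretion was measured from human TLR7-, TLR8- or TLR9-expressing HEK-Blue reporter cells given compound (0.05 nM–50 μM) 30 min before agonist: 7.5 μM gardiquimod, 15.9 μM R848 or 5 nM ODN2006 respectively. Percent inhibition referenced to agonist-plus-DMSO and known-inhibitor wells.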

The target of a further experiment is T2, human TLR8 (Homo sapiens, UniProt Q9NR97).
T2 construct: host or cells: HEK-Blue cells (HEK293-derived reporter line)
T2 sequence (Q9NR97 27-1041): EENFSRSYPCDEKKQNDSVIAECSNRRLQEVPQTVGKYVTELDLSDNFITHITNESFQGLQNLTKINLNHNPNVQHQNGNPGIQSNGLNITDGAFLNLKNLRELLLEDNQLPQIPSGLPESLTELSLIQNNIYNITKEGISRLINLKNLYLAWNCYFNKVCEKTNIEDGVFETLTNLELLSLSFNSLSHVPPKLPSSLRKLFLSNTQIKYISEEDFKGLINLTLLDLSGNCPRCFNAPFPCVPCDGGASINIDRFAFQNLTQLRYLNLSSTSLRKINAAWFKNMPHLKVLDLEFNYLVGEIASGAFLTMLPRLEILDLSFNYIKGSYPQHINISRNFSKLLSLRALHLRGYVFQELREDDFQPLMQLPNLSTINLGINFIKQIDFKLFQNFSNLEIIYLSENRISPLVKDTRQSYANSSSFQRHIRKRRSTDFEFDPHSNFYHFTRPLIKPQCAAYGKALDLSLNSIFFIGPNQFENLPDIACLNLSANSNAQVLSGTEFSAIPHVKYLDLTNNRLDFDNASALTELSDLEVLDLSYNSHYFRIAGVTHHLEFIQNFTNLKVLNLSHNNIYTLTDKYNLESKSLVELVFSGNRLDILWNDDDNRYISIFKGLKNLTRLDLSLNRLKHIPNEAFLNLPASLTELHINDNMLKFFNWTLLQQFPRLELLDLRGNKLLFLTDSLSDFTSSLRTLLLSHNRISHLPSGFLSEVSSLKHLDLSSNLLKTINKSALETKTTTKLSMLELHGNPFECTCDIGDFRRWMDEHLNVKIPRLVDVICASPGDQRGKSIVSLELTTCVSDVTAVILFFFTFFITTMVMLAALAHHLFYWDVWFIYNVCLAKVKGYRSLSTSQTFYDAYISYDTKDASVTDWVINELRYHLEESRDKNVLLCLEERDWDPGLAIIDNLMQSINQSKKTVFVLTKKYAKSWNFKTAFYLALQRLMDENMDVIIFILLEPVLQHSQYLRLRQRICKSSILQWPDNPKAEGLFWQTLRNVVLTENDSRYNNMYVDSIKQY
Description: TLR8 inhibition reporter assay (HEK-Blue cells, SEAP reporter, R848 stimulation). The settings on record: HEK-Blue cells overexpressing human TLR8, SEAP reporter, R848 15.9 μM. A digest of the protocol: as §1
In general terms: A reporter such as luciferase makes a cellular process visible.

The next experiment has as its target T3, human TLR7 (Homo sapiens, UniProt Q9NYK1).
T3 construct: host or cells: HEK-Blue cells (HEK293-derived reporter line)
T3 sequence (Q9NYK1 27-1049): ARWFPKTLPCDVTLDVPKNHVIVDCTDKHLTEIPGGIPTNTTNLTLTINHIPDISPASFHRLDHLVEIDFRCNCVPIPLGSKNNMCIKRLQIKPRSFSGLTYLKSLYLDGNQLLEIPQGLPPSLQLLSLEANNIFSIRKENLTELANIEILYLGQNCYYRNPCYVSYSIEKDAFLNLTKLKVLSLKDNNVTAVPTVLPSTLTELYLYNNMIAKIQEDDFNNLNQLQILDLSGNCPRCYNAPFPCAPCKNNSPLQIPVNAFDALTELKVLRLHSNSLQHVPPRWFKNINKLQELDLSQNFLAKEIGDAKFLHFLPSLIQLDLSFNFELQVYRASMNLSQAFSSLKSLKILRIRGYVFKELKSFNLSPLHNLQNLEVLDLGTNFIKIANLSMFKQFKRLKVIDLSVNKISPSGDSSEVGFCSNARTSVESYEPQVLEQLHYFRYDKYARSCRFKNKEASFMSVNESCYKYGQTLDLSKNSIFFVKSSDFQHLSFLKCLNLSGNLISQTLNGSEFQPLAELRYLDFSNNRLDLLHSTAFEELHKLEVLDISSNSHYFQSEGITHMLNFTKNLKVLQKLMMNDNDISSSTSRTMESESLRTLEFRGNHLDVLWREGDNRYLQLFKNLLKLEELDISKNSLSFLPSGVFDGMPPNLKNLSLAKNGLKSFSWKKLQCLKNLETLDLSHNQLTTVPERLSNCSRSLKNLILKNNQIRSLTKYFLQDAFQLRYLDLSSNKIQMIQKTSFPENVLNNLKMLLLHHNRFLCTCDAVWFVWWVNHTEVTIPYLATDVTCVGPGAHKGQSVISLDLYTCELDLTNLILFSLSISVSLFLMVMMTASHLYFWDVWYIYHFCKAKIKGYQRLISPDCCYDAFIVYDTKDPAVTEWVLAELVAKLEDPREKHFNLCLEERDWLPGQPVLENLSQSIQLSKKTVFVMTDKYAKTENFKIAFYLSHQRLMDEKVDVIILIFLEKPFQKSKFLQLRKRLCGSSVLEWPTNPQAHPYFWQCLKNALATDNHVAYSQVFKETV
The experiment is described as follows: TLR7 inhibition reporter assay (HEK-Blue cells, SEAP reporter, gardiquimod stimulation). The settings on record: HEK-Blue cells overexpressing human TLR7, SEAP reporter, gardiquimod 7.5 μM. A digest of the protocol:
as §1

Where only a bound is given, the exact number is not on record here.

`CC(C)c1c(-c2ccc3cncn3c2)[nH]c2ccc(C3CCNCC3)cc12` [Example 183, 6-(3-isopropyl-5-(piperidin-4-yl)-1H-indol-2-yl)imidazo[1,5-a]pyridine]: the 50% inhibitory concentration (IC50) (commonly the concentration that gives 50% inhibition) against human TLR9 fell in the range of 1 to 50 µM; against human TLR8, 0.1 to 1 µM; against human TLR7, 0.1 to 1 µM.
Regarding `Cc1cc(-c2[nH]c3ccc(C4CCNCC4)cc3c2C(C)C)cn2ccnc12` [Example 112, 6-(3-isopropyl-5-(piperidin-4-yl)-1H-indol-2-yl)-8-methylimidazo[1,2-a]pyridine], the IC50 against human TLR9 was 0.1 to 1 µM; on human TLR8, less than 0.1 µM; against human TLR7, less than 0.1 µM.
`CCc1c(-c2cc3ccccc3o2)[nH]c2ccc(C3CCNCC3)cc12` [Example 186, 2-(benzofuran-2-yl)-3-ethyl-5-(piperidin-4-yl)-1H-indole]: the IC50 at human TLR9, at human TLR8 and against human TLR7 was 1 to 50 µM in each case.
With `CC(C)c1c(-c2ccnc3[nH]ncc23)[nH]c2cc(C(F)(F)F)c(C3CCNCC3)cc12` [Example 249, 4-(3-isopropyl-5-(piperidin-4-yl)-6-(trifluoromethyl)-1H-indol-2-yl)-1H-pyrazolo[3,4-b]pyridine], the IC50 is 1 to 50 µM at human TLR9, 0.1 to 1 µM on human TLR8 and less than 0.1 µM against human TLR7.
`CC(C)c1c(-c2cnc3c(cnn3C)c2)[nH]c2ccc(C3CCN(C(=O)CN(C)C)CC3)cc12` [Example 504, 2-(dimethylamino)-1-(4-(3-isopropyl-2-(1-methyl-1H-pyrazolo[3,4-b]pyridin-5-yl)-1H-indol-5-yl)piperidin-1-yl)ethan-1-one]: the results for the IC50 at human TLR9, against human TLR8 and on human TLR7 were 1 to 50 µM, 0.1 to 1 µM and less than 0.1 µM, respectively.
Regarding `CNC(=O)CN1CCC(c2ccc3[nH]c(-c4cc(C)n5cc(C)nc5c4)c(C(C)C)c3c2)CC1` [Example 352, 2-(4-(2-(2,5-dimethylimidazo[1,2-a]pyridin-7-yl)-3-isopropyl-1H-indol-5-yl)piperidin-1-yl)-N-methylacetamide], the IC50 at human TLR9, on human TLR8 and on human TLR7 was 0.1 to 1 µM each time.
Turning to `CC(C)c1c(-c2ccnc3[nH]ncc23)[nH]c2cc(C(F)(F)F)c(C3CCN(CC4CCNC4)CC3)cc12` (stereo not drawn) [Example 851, 4-(3-isopropyl-5-(1-(pyrrolidin-3-ylmethyl)piperidin-4-yl)-6-(trifluoromethyl)-1H-indol-2-yl)-1H-pyrazolo[3,4-b]pyridine], the IC50 against human TLR9 is 0.1 to 1 µM; on human TLR8, 0.1 to 1 µM; on human TLR7, less than 0.1 µM.
`COc1cc(-c2[nH]c3ccc(C4CCN(C(=O)CN(C)C)CC4)cc3c2C(C)C)cc2nc(C)cn12` [Example 541, 2-(dimethylamino)-1-(4-(3-isopropyl-2-(5-methoxy-2-methylimidazo[1,2-a]pyridin-7-yl)-1H-indol-5-yl)piperidin-1-yl)ethan-1-one]: the IC50 on human TLR9, against human TLR8 and against human TLR7 was 0.1 to 1 µM in each case.
As to `Cc1cn2cc(-c3[nH]c4ccc(C5CCN(C(=O)CN(C)C)CC5)cc4c3C(C)C)ccc2n1` [Example 523, 2-(dimethylamino)-1-(4-(3-isopropyl-2-(2-methylimidazo [1,2-a]pyridin-6-yl)-1H-indol-5-yl)piperidin-1-yl)ethan-1-one], the IC50 against human TLR9 is 0.1 to 1 µM; on human TLR8, 0.1 to 1 µM; against human TLR7, less than 0.1 µM.
For `CC(C)c1c(-c2ncnn3cccc23)[nH]c2ccc(C3CCNCC3)cc12` [Example 191, 4-(3-isopropyl-5-(piperidin-4-yl)-1H-indol-2-yl)pyrrolo[2,1-f][1,2,4]triazine], the IC50 against human TLR9, at human TLR8 and against human TLR7 was 0.1 to 1 µM throughout.
With `CCc1c(-c2ccnc3[nH]ncc23)[nH]c2ccc(C3CCN(CCN)CC3)cc12` [Example 656, 2-(4-(3-ethyl-2-(1H-pyrazolo[3,4-b]pyridin-4-yl)-1H-indol-5-yl)piperidin-1-yl)ethan-1-amine], the IC50 against human TLR9 is 0.1 to 1 µM; on human TLR8 it was less than 0.1 µM; on human TLR7, less than 0.1 µM.
As to `CN(C)C(=O)CN1CCC(c2ccc3[nH]c(-c4ccn5ccnc5c4)c(CC(F)F)c3c2)CC1` [Example 445, 2-(4-(3-(2,2-difluoroethyl)-2-(imidazo[1,2-a]pyridin-7-yl)-1H-indol-5-yl)piperidin-1-yl)-N,N-dimethylacetamide], the IC50 at human TLR9 is 1 to 50 µM; against human TLR8, 0.1 to 1 µM; against human TLR7, less than 0.1 µM.
Regarding `Cc1cc2cc(-c3[nH]c4ccc(C5CCN(C6COC6)CC5)cc4c3C(C)C)ccn2n1` [Example 726, 5-(3-isopropyl-5-(1-(oxetan-3-yl)piperidin-4-yl)-1H-indol-2-yl)-2-methylpyrazolo[1,5-a]pyridine], the half-maximal inhibitory concentration (IC50) against human TLR9 was more than 50 µM; against human TLR8 it was more than 3.13 µM; against human TLR7 it was 0.1 to 1 µM.
